# From PubChem BioAssay AID1421 (Emory University Molecular Libraries Screening Center, 2008)
# Calls of active or inactive are those of the source. The rule behind the calls is not given here.
# Biological target: Prostaglandin E2 receptor EP2 subtype (Homo sapiens) (UniProt P43116)
# Assay: compounds shifting PGE2 potency at EP2 – cell-based, human EP2, PGE2 EC50 shift, dose response (AID 1421)
# Details: EP2-expressing cells, PGE2 EC50 shift by compound
# Sequence of Prostaglandin E2 receptor EP2 subtype (Homo sapiens) (P43116 whole entry, looked up): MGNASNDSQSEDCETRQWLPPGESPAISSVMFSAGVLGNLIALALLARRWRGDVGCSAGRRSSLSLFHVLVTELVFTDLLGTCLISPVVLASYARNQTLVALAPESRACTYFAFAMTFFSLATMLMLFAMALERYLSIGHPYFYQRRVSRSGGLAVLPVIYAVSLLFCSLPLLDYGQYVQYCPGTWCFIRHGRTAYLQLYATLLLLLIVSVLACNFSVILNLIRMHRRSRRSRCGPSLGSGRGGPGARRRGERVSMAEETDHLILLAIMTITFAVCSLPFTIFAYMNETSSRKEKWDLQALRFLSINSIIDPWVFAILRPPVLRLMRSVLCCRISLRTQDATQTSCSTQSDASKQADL
row,SMILES,outcome
1,Cc1ccc(NCc2ccccc2OCc2ccccc2F)cc1,active
2,Cc1sc(NC(=O)c2ccccc2F)c(CN2CCCCC2C)c1C (stereo unspecified),active
3,COc1ncnc2c1oc1nc(CC(C)C)c3c(c12)CCCC3,active
4,Fc1ccc(Oc2nc(-c3ccccc3)nnc2C(F)(F)F)cc1,active
5,CCn1c2c(c3cc(OCC(C)C)ccc31)CCCC2=O,active

# Further lines, results first:
row,outcome,SMILES
1,active,Cc1cc(C)n(-c2nc3ccccc3nc2Nc2ccc3[nH]c(=O)[nH]c3c2)n1
2,active,O=c1c2ccccc2nc2n1C1(CCCCC1)Cc1ccccc1-2
3,active,Cc1cccc(C)c1OC(=O)C(c1ccccc1)c1ccccc1
4,active,O=C(Nc1ccccc1Cl)N1CCSc2ccccc21
5,active,COc1cc2c(cc1OC)-c1cc(N3CCCc4ccccc43)nc(=O)n1CC2

# Same assay, conditions: EP2-expressing cells, PGE2 EC50 shift by compound; measured here: PGE2 EC50 at 6.7 uM compound
row,SMILES,PGE2 EC50 with compound [nM]
1,O=C(Cc1ccc(F)cc1)Nc1ccccc1Sc1ccccc1,0.7
2,C#CCN1C(C)=C(C(=O)OC)C(c2cccc([N+](=O)[O-])c2)C(C(=O)OCC)=C1C (stereo unspecified),2.62
3,CCOC(=O)/C(N=Nc1c(Br)cc(Br)cc1Br)=C(\C)O,0.84
4,CCOC(=O)C1=C(N)N2C(=O)C(C)SC2=C(C(=O)OC)C1c1ccccc1OC (stereo unspecified),0.51
5,COc1cc(S(=O)(=O)N(Cc2cccnc2)Cc2ccco2)ccc1-n1cnnn1,1.45
6,CCN(CC)C(=O)CN(c1cc2c(cc1OC)oc1ccccc12)S(=O)(=O)c1ccc(C)cc1,1.2
7,O=S(Cc1cc(Sc2ccccc2)nc(-c2ccccc2)n1)c1ccccc1 (stereo unspecified),1.15
8,CC(=O)O[C@@H]1c2c(ccc3ccc(=O)oc23)OC(C)(C)[C@@H]1OC(=O)CC(C)C,0.92
9,S=C(Nc1ccccc1Cl)N(Cc1ccccc1)Cc1ccccn1,1.62
10,CCOc1ccc(OCC)c(NC(=O)CN2CCN(c3cccc(C)c3)CC2)c1,1.02
11,Cc1ccc(NCc2ccccc2OCc2ccccc2F)cc1,0.86
12,Cc1sc(NC(=O)c2ccccc2F)c(CN2CCCCC2C)c1C (stereo unspecified),0.88
13,CC1=CCc2c(cc3oc(C)cc(=O)c3c2O)OC1,1.3
14,CCOC(=O)c1c(NC(=O)CN2CCCCC2)sc2c1CCN(C(=O)OCC)C2,0.9
15,C=CCc1cccc(C=Nc2cc(Br)ccc2O)c1O,0.89
16,COc1cc2nc(N3CCN(C(=O)C4CCCO4)CC3)nc(N)c2cc1OC (stereo unspecified),0.85
17,CCOC(=O)C1=C(C)N(C)C(C)=C(C(=O)OCC)C1c1ccccc1,0.97
18,S=c1nc[nH]c2c1[nH]c1ccccc12,1.29
19,CCCCOc1ccccc1Cn1c(=O)oc2ccc(C)cc21,0.92
20,Cc1ccc(C(C)C)c(OCc2ccc(-c3nnco3)cc2)c1,2.51
21,N#CN=C1SCCS1,0.92
22,Cc1c(NC(=S)NC(=O)c2ccc(-c3ccc(Cl)cc3)o2)cccc1C(=O)O,0.25
23,Cc1ccc(C2CC(c3cccs3)=NN2C(=O)c2ccc(Br)o2)cc1 (stereo unspecified),0.75
24,Cc1sc2ncnc(Sc3ccccc3C(=O)O)c2c1C,2.7
25,c1ccc(Nc2nc(N3CCNCC3)nc(N3CCOCC3)n2)cc1,1.46

row,SMILES,PGE2 EC50 with compound [nM]
1,Cc1ccc2[nH]c3c(=S)nc[nH]c3c2c1,2.83
2,CCc1nc(N2CCC(C)CC2)c2oc3ccccc3c2n1,1.23
3,COc1ncnc2c1oc1nc(CC(C)C)c3c(c12)CCCC3,0.91
4,COc1ccc(-n2c(COc3cccc4ccccc34)nnc2SCC#N)cc1,1.19
5,Clc1ccc(Cl)c(Nc2ccnc(SCc3ccccc3)n2)c1,0.64
6,O=c1[nH]c(SCc2cccc(Cl)c2)nc2c1CCCC2,0.77
7,COc1ccc2cc3c(N)nn(C(=O)C4CCC(C(C)(C)C)CC4)c3nc2c1 (stereo unspecified),1.08
8,CC(C)Sc1nc2sc3c(c2c2nnc(SCC(=O)NCc4ccco4)n12)CCCC3,0.93
9,Cc1ccc(N(C(=O)c2snc(C(N)=O)c2N)C(C(=O)NCCC(C)C)c2ccco2)cc1 (stereo unspecified),2.61
10,CC(=O)c1ccc2c(c1)c1ccccc1n2CC(C)C,1.35
11,Cc1nnc(SCC(=O)NC2CCCCC2)n1C1CCCCC1,2.7
12,O=P(c1ccccc1)(c1ccccc1)c1nc(-c2ccccc2)oc1NCc1ccccc1,0.33
13,Fc1ccc(Oc2nc(-c3ccccc3)nnc2C(F)(F)F)cc1,0.66
14,CCCCCCC/C=C\CCCCCCCCC(=O)O,1.56
15,CCCCc1nnc(SCCSc2nnc(CCCC)n2N)n1N,1
16,NC(N)=Nc1nc(CSCC/C(N)=N/S(N)(=O)=O)cs1,0.78
17,CCC(C)(C)c1ccc(OCC(=O)N(C)C)c(C(C)(C)CC)c1,5.61
18,CN(C)c1nccc(N(Cc2ccccc2)Cc2ccccc2)c1C#N,1.16
19,COc1ccc2ccc(=O)oc2c1CC=C(C)C,1.13
20,O=C(O)NCc1ccccc1 (tested in a mixture with another compound),1.38
21,CCOC(=O)C1=C(CC)OC(N)=C(C#N)C1c1ccsc1 (stereo unspecified),1.33
22,CCn1c2c(c3cc(OCC(C)C)ccc31)CCCC2=O,1.09
23,Cc1nc(SCCC(=O)O)c2ccccc2n1,2.93
24,COc1cc2c(cc1OC)-c1cc(Nc3ccc4c(c3)OCCO4)nc(=O)n1CC2,2.5
25,Cc1cc([N+](=O)[O-])c(C)c(Br)c1C,1.11

# Results, then the compound that gave them:
row,PGE2 EC50 with compound [nM],SMILES
1,0.83,Cc1cc(C)n(-c2nc3ccccc3nc2Nc2ccc3[nH]c(=O)[nH]c3c2)n1
2,0.75,CCSC1=N/C(=C\c2ccccc2)C(=O)N1c1ccc(OC)cc1
3,0.95,O=c1c2ccccc2nc2n1C1(CCCCC1)Cc1ccccc1-2
4,1.48,O=C(COc1ccccc1)Nc1ccccc1N1CCN(c2ccccc2)CC1
5,1.03,CSc1nc(-c2ccc(Cl)cc2)nn1S(=O)(=O)c1ccccc1
6,1.45,C=CCn1c(-c2oc3nc(-c4ccccc4)cc(-c4ccccc4)c3c2N)n[nH]c1=S
7,1.34,CCOc1ccccc1C(=O)Nc1ccccc1-c1ccccc1
8,0.72,C=CCSc1nc2ccccc2c(=O)n1Cc1ccccc1
9,2.79,O=C(O)CSc1ccc2ccccc2n1
10,1.51,CCc1nc(SCC(=O)Nc2nc3c(s2)CCCC3)c2ccccc2n1
11,0.79,Cc1ccc2nc(-c3ccccn3)c(Nc3ccccc3C)n2c1
12,2.47,Cc1cccc(C)c1OC(=O)C(c1ccccc1)c1ccccc1
13,1.34,CCOC(=O)c1c(-c2ccc(-c3ccccc3)cc2)csc1NC(=O)CCN1CCOCC1
14,1.55,O=C(Nc1ccccc1Cl)N1CCSc2ccccc21
15,1.2,CC(Cc1ccccc1)NC(=O)C1(c2ccccc2)CCOCC1 (stereo unspecified)
16,0.74,COc1ccc2c(-c3ccccc3)cc(N3CCOCC3)nc2c1
17,0.8,O=C(Nc1ccc2c(c1)OCO2)c1cccc2c1C(=O)N(C1CCCCC1)C2
18,2.69,Nc1n[nH]c2c1C1(CCCCC1)Cc1ccccc1-2
19,0.78,O=C(Nc1ccccc1Oc1ccccc1)c1cnccn1
20,0.93,CC(=O)N1Cc2ccccc2C(C)CC12CCCCC2 (stereo unspecified)
21,0.68,Cc1ccc(-n2c(Cc3cccc4ccccc34)n[nH]c2=S)c(C)c1
22,1.57,Cc1cc(=O)oc(C)c1C(=O)OC(C(=O)c1ccccc1)c1ccccc1 (stereo unspecified)
23,1.3,COc1ccc(CSC2=C(C#N)C(=O)NC3(CCCCC3)S2)cc1
24,1.98,COc1cc2c(cc1OC)-c1cc(N3CCCc4ccccc43)nc(=O)n1CC2
25,1.22,CCc1c(-c2n[nH]c(=S)n2Cc2ccccc2)csc1C
26,1.48,O=C(c1ccccc1O)N1N=C(c2ccccc2)CC1(O)C(F)(F)F (stereo unspecified)
